Test results: US20250289813A1, “CDK INHIBITORS, PHARMACEUTICAL COMPOSITIONS, AND THERAPEUTIC APPLICATIONS” (ONQUALITY PHARMACEUTICALS CHINA LTD., priority 2022, published 2025)

Experiments:
CDK4/cyclin D1 = CDK4/cyclin D1 (Homo sapiens (Human), UniProt P11802); assay: CDK4 Caliper Mobility Shift assay; assay type: biochemical
Protocol: (§1) A Caliper Mobility Shift assay was used to determine the inhibitory activities of a compound against CDK4/cyclin D1 and CDK6/cyclin D1 in their respective kinase buffers (CDK4: 20 mM HEPES, pH 7.5, and 0.01% Triton X-100; CDK6: 50 mM HEPES, pH 7.5, and 0.0015% BRIJ-35). The CDK4/cyclin D1 and CDK6/cyclin D1 were obtained from PROQINASE and CARNA, respectively. A FAM-labeled peptide was obtained from GL.
(§2) The compound at predetermined concentrations was pre-incubated with CDK4/cyclin D1 or CDK6/cyclin D1 in a 384-well microplate at room temperature for 10 min. The FAM-labeled peptide and ATP were subsequently added to initiate the kinase reactions. The final enzyme concentrations were 15 nM for CDK4 and 7.5 nM for CDK6. The final ATP concentrations were […] for CDK4 and […] for CDK6. The microplate was allowed to incubate at 28° C. The kinase reactions were stopped by adding a stop buffer (100 mM HEPES, pH 7.5, 0.012% BRIJ-35, 0.2% Coating Reagent 3 (Caliper Life Sciences), and […]). Conversion data were recorded and utilized to calculate the percent inhibition values for each compound and an IC50 value was then determined. The results are summarized in Table 1, where the symbol “***” represents a value no greater than 200 nM, the symbol “**” represents a value greater than 200 nM but no greater than 500 nM, and the symbol “*” represents a value greater than 500 nM.

CDK6/cyclin D1 = CDK6/cyclin D1 (Homo sapiens (Human), UniProt Q00534); assay: CDK6 Caliper Mobility Shift assay; assay type: biochemical
Protocol: as §1, §2

CDK6/cyclin D1, sequence (Q00534 whole entry): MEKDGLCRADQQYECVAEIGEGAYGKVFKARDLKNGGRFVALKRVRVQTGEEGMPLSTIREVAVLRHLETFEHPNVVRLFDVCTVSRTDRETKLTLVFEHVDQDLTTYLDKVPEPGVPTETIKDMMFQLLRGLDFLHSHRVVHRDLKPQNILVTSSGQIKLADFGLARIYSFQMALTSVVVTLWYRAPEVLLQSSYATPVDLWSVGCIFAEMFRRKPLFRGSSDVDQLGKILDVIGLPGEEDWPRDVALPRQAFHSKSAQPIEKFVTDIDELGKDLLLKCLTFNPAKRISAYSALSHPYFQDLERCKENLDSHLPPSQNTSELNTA
CDK6/cyclin D1, sequence (P24385 whole entry partner): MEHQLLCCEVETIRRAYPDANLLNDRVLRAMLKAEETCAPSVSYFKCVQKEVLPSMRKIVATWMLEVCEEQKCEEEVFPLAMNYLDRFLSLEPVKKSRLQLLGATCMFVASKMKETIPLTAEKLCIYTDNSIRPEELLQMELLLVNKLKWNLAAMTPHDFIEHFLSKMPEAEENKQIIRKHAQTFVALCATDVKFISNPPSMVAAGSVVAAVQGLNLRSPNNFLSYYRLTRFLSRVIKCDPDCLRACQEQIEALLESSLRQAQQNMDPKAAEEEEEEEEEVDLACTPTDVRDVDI
CDK4/cyclin D1, sequence (P11802 whole entry): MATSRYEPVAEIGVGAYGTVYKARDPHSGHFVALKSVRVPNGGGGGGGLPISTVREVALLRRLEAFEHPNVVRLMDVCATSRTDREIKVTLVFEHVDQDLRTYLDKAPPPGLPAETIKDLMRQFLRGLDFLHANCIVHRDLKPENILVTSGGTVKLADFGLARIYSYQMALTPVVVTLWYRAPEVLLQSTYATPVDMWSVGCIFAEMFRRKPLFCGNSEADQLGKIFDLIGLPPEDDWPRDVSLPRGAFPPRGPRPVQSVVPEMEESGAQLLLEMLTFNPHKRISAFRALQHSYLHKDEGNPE
CDK4/cyclin D1, sequence (P24385 whole entry partner): as the sequence (P24385 whole entry partner) above

Row | IC50 (CDK4/cyclin D1) [nM] | IC50 (CDK6/cyclin D1) [nM] | Compound
1 | ≤ 200 | ≤ 200 | CC(=O)c1c(C)c2cnc(Nc3ccc(N4CCN(S(=O)(=O)NC(=O)OCCNC(=O)[C@@H](C)N)CC4)cn3)nc2n(C2CCCC2)c1=O [Compound A16, (R)-2-(2-Aminopropanamido)ethyl ((4-(6-((6-acetyl-8-cyclopentyl-5-methyl-7-oxo-7,8-dihydropyrido[2,3-d]pyrimidin-2-yl)amino)pyridin-3-yl)piperazin-1-yl)sulfonyl)-carbamate]
2 | 200 to 500 | 200 to 500 | CC(=O)c1c(C)c2cnc(Nc3ccc(N4CCN(S(=O)(=O)N(C)C)CC4)cn3)nc2n(C2CCCC2)c1=O [Compound A50, 4-(6-((6-Acetyl-8-cyclopentyl-5-methyl-7-oxo-7,8-dihydropyrido[2,3-d]-pyrimidin-2-yl)amino)pyridin-3-yl)-N,N-dimethylpiperazine-1-sulfonamide]
3 | ≤ 200 | 200 to 500 | CC(=O)c1c(C)c2cnc(Nc3ccc(N4CCN(S(=O)(=O)OC5CCCC5)CC4)cn3)nc2n(C2CCCC2)c1=O [Compound B4, Cyclopentyl 4-(6-((6-acetyl-8-cyclopentyl-5-methyl-7-oxo-7,8-dihydropyrido[2,3-d]pyrimidin-2-yl)amino)pyridin-3-yl)piperazine-1-sulfonate]
4 | ≤ 200 | 200 to 500 | CC(=O)c1c(C)c2cnc(Nc3ccc(N4CCN(S(N)(=O)=O)CC4)cn3)nc2n(C2CCCC2)c1=O [Compound A5, 4-(6-((6-acetyl-8-cyclopentyl-5-methyl-7-oxo-7,8-dihydropyrido[2,3-d]pyrimidin-2-yl)amino)pyridin-3-yl)-piperazine-1-sulfonamide]
5 | ≤ 200 | 200 to 500 | CNS(=O)(=O)N1CCN(c2ccc(Nc3ncc4c(C)c(C(C)=O)c(=O)n(C5CCCC5)c4n3)nc2)CC1 [Compound A46, 4-(6-((6-Acetyl-8-cyclopentyl-5-methyl-7-oxo-7,8-dihydropyrido[2,3-d]-pyrimidin-2-yl)amino)pyridin-3-yl)-N-methylpiperazine-1-sulfonamide]
6 | ≤ 200 | ≤ 200 | CC(=O)c1c(C)c2cnc(Nc3ccc(N4CCN(S(=O)(=O)NC(=O)OCCNC(=O)[C@@H](N)CC(C)C)CC4)cn3)nc2n(C2CCCC2)c1=O [Compound A17, (S)-2-(2-Amino-4-methylpentanamido)ethyl ((4-(6-((6-acetyl-8-cyclopentyl-5-methyl-7-oxo-7,8-dihydropyrido[2,3-d]pyrimidin-2-yl)amino)pyridin-3-yl)piperazin-1-yl)-sulfonyl)carbamate]
7 | ≤ 200 | 200 to 500 | CC(=O)c1c(C)c2cnc(Nc3ccc(N4CCN(S(=O)(=O)O)CC4)cn3)nc2n(C2CCCC2)c1=O [Compound 6.1, 4-(6-((6-Acetyl-8-cyclopentyl-5-methyl-7-oxo-7,8-dihydropyrido[2,3-d]-pyrimidin-2-yl)amino)pyridin-3-yl)piperazine-1-sulfonic acid]
8 | 200 to 500 | ≤ 200 | CC(=O)c1c(C)c2cnc(Nc3ccc(N4CCN(S(=O)(=O)NC(=O)OCC(=O)O)CC4)cn3)nc2n(C2CCCC2)c1=O [Compound A11, 2-((((4-(6-((6-Acetyl-8-cyclopentyl-5-methyl-7-oxo-7,8-dihydropyrido[2,3-d]-pyrimidin-2-yl)amino)pyridin-3-yl)piperazin-1-yl)sulfonyl)carbamoyl)oxy)acetic acid]

Row | Compound | IC50 (CDK4/cyclin D1) [nM] | IC50 (CDK6/cyclin D1) [nM]
9 | CC(=O)c1c(C)c2cnc(Nc3ccc(N4CCN(S(=O)(=O)NC(=O)C5CCOCC5)CC4)cn3)nc2n(C2CCCC2)c1=O [Compound A40, N-((4-(6-((6-Acetyl-8-cyclopentyl-5-methyl-7-oxo-7,8-dihydropyrido[2,3-d]-pyrimidin-2-yl)amino)pyridin-3-yl)piperazin-1-yl)sulfonyl)tetrahydro-2H-pyran-4-carboxamide] | ≤ 200 | ≤ 200
